Reference: paper PMC12257544, “Fluorescent Isostere (Fluostere) of the Carboxylate: Design of hDHODH Fluorescent Inhibitors as Proof of Concept” (Journal of Medicinal Chemistry, 2025)
Where “and” joins values, the source holds several entries; their conditions need not be identical. Equal values may be shown once.

What was measured:
[1] = Photophysical characterization (absorption, emission, QY, lifetime); format: physicochemical; settings: for Lifetime / QY (luminescence quantum yield) / Stokes shift / λabs / λem: in ACN
Protocol: UV–Vis absorption spectra were recorded on a Cary60 spectrometer. Photoemission spectra, luminescence lifetimes, and quantum yields were acquired with a HORIBA Jobin Yvon IBH Fluorolog-TCSPC spectrofluorometer equipped with a Quanta-φ integrating sphere. […] Emission-decay data were collected in 2048 channels to 10000 counts in the peak channel. IRF was measures using colloidal silica suspension in H2O to scatter light. Data were analyzed with the software DAS6 (TCSPC decay-analysis software) using a nonlinear least-squares method to fit of the decay to a sum of exponentials. The value of χ^2, residuals and the autocorrelation function (Durbin-Watson parameter) were used to determine the quality of the fit. For measurements in the presence of hDHODH, 11a was incubated, at 1 μM concentration in TRIS Buffer 0.1 mM (pH 8) with 0.1% DMSO, alone or with different concentrations of recombinant protein ranging from 31.5 to 504 nM concentration. After 5 min incubation UV–Vis absorption spectra were recorded on a Cary60 spectrophotometer and photoemission spectra were acquired with a HORIBA Jobin Yvon IBH Fluorolog-TCSPC spectrofluorometer with excitation λ of 366 nm and maximum of emission at 500 nm; a.u. data were analyzed with GraphPad Prism using One Site – Specific Binding equation.

Experimental pKa = format: physicochemical
[2] = set-up: method as in doi:10.1021/cr00002a004; settings: substituent in position 3; cited from earlier work
THP-1 cells = test: Co-localization competition assay with Bay2402234 (Manders coefficient); format: cell-based, human; settings: THP-1 cells, 10 μM, 3 h
Protocol: Colocalization between hDHODH inhibitors and mitochondria was quantified using Manders coefficient (Figure D).
THP-1 cells were incubated for 3 h with hDHODHi 11a and Bay240223410 at 10 μM, either alone or in combination. After incubation, the cells were washed and stained with Red-MitoTracker CMXRos (Thermo Fisher, Carlsbad, CA, USA) at a concentration of 100 nM for 30 min at 37 °C. Cells were imaged with a Leica TCS SP8 confocal system (Leica Microsystems) equipped with 4 excitation lasers (405 Diode, Argon, DPSS561, HeNe633). Images were acquired with a HCX PL APO 63×/1.4 NA oil-immersion objective with a resolution of 81 nm × 81 nm and were processed and analyzed with ImageJ software (Rasband, W.S., U.S. National Institutes of Health, Bethesda, […]). In particular, colocalization was analyzed with JACoP plugin and Manders’ coefficient was calculated

hDHODH enzyme GST-tagged = hDHODH enzyme GST-tagged (Homo sapiens, UniProt Q02127); test: hDHODH inhibition assay (DCIP reduction)
Chain of hDHODH enzyme GST-tagged (Q02127 whole entry): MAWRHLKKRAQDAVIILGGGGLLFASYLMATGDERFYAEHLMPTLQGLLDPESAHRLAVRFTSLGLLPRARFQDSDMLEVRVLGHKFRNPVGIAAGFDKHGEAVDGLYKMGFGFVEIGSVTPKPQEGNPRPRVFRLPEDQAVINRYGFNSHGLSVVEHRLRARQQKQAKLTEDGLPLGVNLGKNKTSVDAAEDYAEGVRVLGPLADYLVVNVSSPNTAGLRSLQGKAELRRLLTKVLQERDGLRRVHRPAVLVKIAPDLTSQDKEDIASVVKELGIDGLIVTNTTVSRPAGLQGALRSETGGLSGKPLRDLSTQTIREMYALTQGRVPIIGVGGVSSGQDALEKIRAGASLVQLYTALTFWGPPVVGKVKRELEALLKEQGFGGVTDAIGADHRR
Protocol: The enzyme (around 60 nM) was preincubated for 5 min at 37 °C in Tris-buffer solution (pH 8.0) with coenzyme Q10 (100 μM), tested compounds at different concentrations (final DMSO concentration 0.1% v/v), and DCIP (50 μM). The reaction was initiated by addition of DHO (500 μM) and the reduction was monitored at λ = 650 nm. […] Values are means ± SE of three independent experiments.

SMILES	Lifetime [1]	QY (luminescence quantum yield) [1]	Stokes shift [1]	λabs [1]	λem [1]	pKa (Experimental pKa)	emission in the solid state [1]	σ p (Hammett substituent constant) [2]	fluorescence at the wavelength specific for 11a (THP-1 cells)	IC50 (hDHODH enzyme GST-tagged)
COc1nn2ccccc2c1-c1ccc2cccnc2c1 [Compound 7b, 7-(2-Methoxypyrazolo[1,5-a]pyridin-3-yl)quinoline]	5.5 ns	0.42	5868 cm^–1	356 nm	450 nm	–	–	–	–	–
CCOC(=O)c1c(O)nn2c(N(C)C)cccc12 [Compound 8a, Ethyl 7-(Dimethylamino)-2-hydroxypyrazolo[1,5-a]pyridine-3-carboxylate]	3.7 ns	0.06	5255 cm^–1	338 nm	411 nm	–	–	–	–	–
Oc1cc2ccccn2n1 [Compound 1, Pyrazolo[1,5-a]pyridin-2-ol]	12 ns	0.21	7567 cm^–1	310 nm	405 nm	~5	–	–	–	–
COc1cc2ccccn2n1 [Compound 1a, 2-Methoxypyrazolo[1,5-a]pyridine]	–	–	–	305 nm	400 nm	–	–	–	–	–
COc1nn2ccccc2c1NS(C)(=O)=O [Compound 3b, N-(2-methoxypyrazolo[1,5-a]pyridin-3-yl)methanesulfonamide]	2 ns	<0.01	10379 cm^–1	315 nm	468 nm	–	–	0.03	–	–
CCn1c(CO)nn(-c2cc(O[C@@H](C)C(F)(F)F)c(C(=O)Nc3c(F)cccc3Cl)cc2F)c1=O [Bay2402234, reference compound]	–	–	–	–	–	–	–	–	no detectable fluorescence	–
CCOC(=O)c1c(OC)nn2ccccc12 [Compound 2a, Ethyl 2-methoxypyrazolo[1,5-a]pyridine-3-carboxylate]	9 ns	0.45	5942 cm^–1	310 nm	380 nm	–	–	–	–	–
COc1nn2c(N(C)C)cccc2c1-c1ccc2ncccc2c1 [Compound 9b, 2-Methoxy-N,N-dimethyl-3-(quinolin-6-yl)pyrazolo[1,5-a]pyridin-7-amine]	2.7 ns	0.10	9508 cm^–1	362 nm	552 nm	–	–	–	–	–
O=[N+]([O-])c1c(O)nn2ccccc12 [Compound 3, 3-Nitropyrazolo[1,5-a]pyridin-2-ol]	–	–	–	361 nm	n.e. ^a	–	–	0.78	–	–
COc1nn2ccccc2c1C=C(C#N)C#N [Compound 4a, 2-((2-Methoxypyrazolo[1,5-a]pyridin-3-yl)methylene)]	–	–	–	393 nm	n.e.	–	yellow light	–	–	–
Oc1nn2ccccc2c1-c1ccc2cc(-c3ccccc3)ccc2n1 [Compound 12, 3-(6-Phenylquinolin-2-yl)pyrazolo[1,5-a]pyridin-2-ol]	2.3 ns	<0.01	2385 cm^–1	390 nm	430 nm	–	–	–	–	16 µM
COc1nn2ccccc2c1-c1ccc2ncccc2c1 [Compound 7c, 6-(2-Methoxypyrazolo[1,5-a]pyridin-3-yl)quinoline]	5.3 ns	0.24	6832 cm^–1	350 nm	460 nm	–	–	–	–	–
COc1nn2c(Cl)cccc2c1-c1ccc2ncccc2c1 [Compound 9a, 6-(7-Chloro-2-methoxypyrazolo[1,5-a]pyridin-3-yl)quinoline]	5.1 ns	<0.01	6832 cm^–1	350 nm	–	–	–	–	–	–
CCOC(=O)c1c(=O)n(C)n2ccccc12 [Compound 2b, Ethyl 1-methyl-2-oxo-1,2-dihydropyrazolo[1,5-a]pyridine-3-carboxylate]	11 ns	0.26	6514 cm^–1	345 nm	445 nm	–	–	–	–	–
Cn1c(=O)cc2ccccn21 [Compound 1b, 1-Methylpyrazolo[1,5-a]pyridin-2(1H)-one]	–	–	–	335 nm	465 nm	–	–	–	–	–
CCOC(=O)c1c(=O)n(Cc2ccccc2)n2ccccc12 [Compound 2d, Ethyl 1-benzyl-2-oxo-1,2-dihydropyrazolo[1,5-a]pyridine-3-carboxylate]	12 ns	0.30	6414 cm^–1	348 nm	448 nm	–	–	–	–	–
Oc1nn2ccccc2c1-c1ccc2cc(-c3ccccc3)cnc2c1 [Compound 13, 3-(3-Phenylquinolin-7-yl)pyrazolo[1,5-a]pyridin-2-ol]	3.7 ns	0.74	5288 cm^–1	370 nm	460 nm	–	–	–	–	33 µM
COC(=O)/C(C#N)=C/c1c(OC)nn2ccccc12 [Compound 4b, Methyl (e)-2-cyano-3-(2-methoxypyrazolo[1,5-a]pyridin-3-yl)acrylate]	–	–	–	395 nm	n.e.	–	yellow light	–	–	–
COc1nn2ccccc2c1NC(C)=O [Compound 3a, N-(2-methoxypyrazolo[1,5-a]pyridine-3-yl)acetamide]	–	<0.01	10169 cm^–1	312 nm	457 nm	–	–	0.00	–	–

Second part, led by results:

Lifetime [1]	QY (luminescence quantum yield) [1]	Stokes shift [1]	λabs [1]	λem [1]	pKa (Experimental pKa)	emission in the solid state [1]	SMILES	σ p (Hammett substituent constant) [2]	fluorescence at the wavelength specific for 11a (THP-1 cells)	IC50 (hDHODH enzyme GST-tagged)
9 ns	0.43	5942 cm^–1	310 nm	380 nm	–	–	CCOC(=O)c1c(OCc2ccccc2)nn2ccccc12 [Compound 2c, Ethyl 2-(Benzyloxy) Pyrazolo[1,5-a]pyridine-3-carboxylate]	–	–	–
3.5 ns	<0.01	9851 cm^–1	335 nm	500 nm	–	–	COc1nn2ccccc2c1/C=C/c1ccccc1 [Compound 5a, (E)-2-methoxy-3-styrylpyrazolo[1,5-a]pyridine]	–	–	–
2.8 ns	0.52	3330 cm^–1	370 nm	422 nm	–	–	COc1nn2ccccc2c1-c1ccc2ccccc2n1 [Compound 7a, 2-(2-Methoxypyrazolo[1,5-a]pyridin-3-yl)quinoline]	–	–	–
<0.1 ns	<0.01	8368 cm^–1	426 nm	662 nm	–	–	COc1nn2ccccc2c1/C=C/c1ccc([N+](=O)[O-])cc1 [Compound 5e, (E)-2-methoxy-3-(4-nitrostyryl) Pyrazolo[1,5-a]pyridine]	–	–	–
3.5 ns	<0.01	5750 cm^–1	370 nm	470 nm	–	–	COc1nn2ccccc2c1/C=C/c1ccc(S(C)(=O)=O)cc1 [Compound 5c, (E)-2-methoxy-3-(4-(methylsulfonyl)styryl)pyrazolo[1,5-a]pyridine]	–	–	–
3.5 ns	<0.01	5178 cm^–1	378 nm	470 nm	–	–	COc1nn2ccccc2c1/C=C/c1ccc(C#N)cc1 [Compound 5d, (E)-4-(2-(2-methoxypyrazolo[1,5-a]pyridin-3-yl)vinyl)benzonitrile]	–	–	–
3.5 ns	<0.01	8964 cm^–1	350 nm	510 nm	–	–	COc1nn2ccccc2c1/C=C/c1ccc(SC)cc1 [Compound 5b, (E)-2-methoxy-3-(4-(methylthio)styryl)pyrazolo[1,5-a]pyridine]	–	–	–
4.3 ns	0.13	7480 cm^–1	345 nm	465 nm	–	–	COc1nn2ccccc2c1-c1ccc2ccccc2c1 [Compound 6, 2-Methoxy-3-(naphthalen-2-yl)pyrazolo[1,5-a]pyridine]	–	–	–
<1 ns	0.08	3531 cm^–1	450 nm	542 nm and 535 nm	–	–	Oc1nn2ccccc2c1/C=C/c1cc(F)c(-c2ccccc2)c(F)c1F [Compound 11b]	–	–	–
